Results reported in patent US9267949B2, “Alkylamino BODIPY dyes as selective fluorescent probes for proteins and mouse embryonic stem cells” (National University of Singapore, priority 2011, dated 2016).

Experiments:
[1] = Spectroscopic properties of the BDM library (absorbance and emission maxima); assay type: physicochemical
[2] = Quantum yield measurements; assay type: physicochemical; conditions: referred to Rhodamine B in EtOH, excitation 510 nm, emission integrated 540-800 nm
Method: Quantum yields were calculated by measuring the integrated emission area of the fluorescent spectra, and referring them to the area measured for Rhodamine B in EtOH after excitation at 510 nm (ΦRho-B=0.70). Quantum yields for the BDM products were then calculated using equation below, where F represents the area of fluorescent emission, n is reflective index of the solvent, and Abs is absorbance at excitation wavelength selected for standards and samples. Emission was integrated from 540 nm to 800 nm.

Row | λmax (ABS) [1] [nm] | λmax (EM) [1] [nm] | φ (quantum yield) [2] | Structure (SMILES)
1 | 592 | 653 | 0.06 | COc1ccc2[nH]cc(/C=C/C3=[N+]4C(=C(CCN)c5cccn5[B-]4(F)F)C(C)=C3)c2c1 [BDM-93]
2 | 561 | 572 | 0.04 | COc1cccc(/C=C/C2=[N+]3C(=C(CCN)c4cccn4[B-]3(F)F)C(C)=C2)c1O [BDM-97]
3 | 571 | 582 | 0.43 | CC1=CC(/C=C/c2ccc(Br)s2)=[N+]2C1=C(CCN)c1cccn1[B-]2(F)F [BDM-100]
4 | 559 | 576 | 0.66 | CC1=CC(/C=C/c2ccc(Oc3ccccc3)cc2)=[N+]2C1=C(CCN)c1cccn1[B-]2(F)F [BDM-101]
5 | 556 | 567 | 0.18 | CC1=CC(/C=C/c2cccc(O)c2)=[N+]2C1=C(CCN)c1cccn1[B-]2(F)F [BDM-105]
6 | 617 | 681 | 0.05 | CCN(CC)c1ccc(/C=C/C2=[N+]3C(=C(CCN)c4cccn4[B-]3(F)F)C(C)=C2)cc1 [BDM-107]
7 | 549 | 573 | 0.35 | CC1=CC(/C=C/c2c(C)cc(C)cc2C)=[N+]2C1=C(CCN)c1cccn1[B-]2(F)F [BDM-108]
8 | 563 | 583 | 0.85 | COc1ccc(/C=C/C2=[N+]3C(=C(CCN)c4cccn4[B-]3(F)F)C(C)=C2)cc1 [BDM-110]
9 | 566 | 589 | 0.79 | CC(=O)Nc1ccc(/C=C/C2=[N+]3C(=C(CCN)c4cccn4[B-]3(F)F)C(C)=C2)cc1 [BDM-111]
10 | 568 | 594 | 0.05 | COc1ccc(/C=C/C2=[N+]3C(=C(CCN)c4cccn4[B-]3(F)F)C(C)=C2)cc1O [BDM-132]
11 | 577 | 601 | 0.10 | CC1=CC(/C=C/c2ccc(C)o2)=[N+]2C1=C(CCN)c1cccn1[B-]2(F)F [BDM-135]
12 | 563 | 575 | 0.28 | CC1=CC(/C=C/c2ccc3ccccc3c2)=[N+]2C1=C(CCN)c1cccn1[B-]2(F)F [BDM-137]
13 | 564 | 584 | 0.55 | CC1=CC(/C=C/c2ccc3c(c2)OCO3)=[N+]2C1=C(CCN)c1cccn1[B-]2(F)F [BDM-139]
14 | 564 | 585 | 0.57 | CCCOc1ccc(/C=C/C2=[N+]3C(=C(CCN)c4cccn4[B-]3(F)F)C(C)=C2)cc1 [BDM-140]
15 | 554 | 566 | 0.42 | CC1=CC(/C=C/c2ccccc2C)=[N+]2C1=C(CCN)c1cccn1[B-]2(F)F [BDM-143]
16 | 578 | 612 | 0.05 | COc1cc(OC)c(OC)cc1/C=C/C1=[N+]2C(=C(CCN)c3cccn3[B-]2(F)F)C(C)=C1 [BDM-144]
17 | 566 | 586 | 0.41 | CC1=CC(/C=C/c2ccc(OCCCN(C)C)cc2)=[N+]2C1=C(CCN)c1cccn1[B-]2(F)F [BDM-163]
18 | 556 | 567 | 0.78 | CC1=CC(/C=C/c2ccc(C(C)(C)C)cc2)=[N+]2C1=C(CCN)c1cccn1[B-]2(F)F [BDM-177]
19 | 561 | 577 | 0.37 | COc1ccc(Oc2ccc(/C=C/C3=[N+]4C(=C(CCN)c5cccn5[B-]4(F)F)C(C)=C3)cc2)cc1 [BDM-178]
20 | 566 | 581 | 0.26 | COC(=O)c1ccc(-c2ccc(/C=C/C3=[N+]4C(=C(CCN)c5cccn5[B-]4(F)F)C(C)=C3)cc2)cc1 [BDM-179]
